The source of these data is patent publication US20260201008A1, “SECRETIN-DERIVED GLP1R SELECTIVE AGONISTS” (GUBRA A/S, priority 2023, published 2026).

Each structure is given as a SMILES string. Numbered stars: 1 amine (or outer) side, 2 acyl side, 3 side chain; on linkers, the order of the positions; unused ones are H or OH. Square brackets hold non-standard residues; d marks the D form. Side chains are listed from the residue outwards. Peptide text beside a SMILES is read from it. * marks the point of attachment. C20 diacid = O=C(O)CCCCCCCCCCCCCCCCCCC(=O)*; γGlu = O=C(O)[C@H](CCC(=O)[*:2])N[*:1]; AEEA = NCCOCCOCC(=O)O; Aib = CC(C)(N)C(=O)O

The nature of series [1]: Turbidity of crude library peptides (absorbance at 600 nm). The format is physicochemical. The following applies: Physical stability of peptides. The method, boiled down: (§1)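 Turbidity is the absorbance at 600 nm, taken before heating. Fibril signal is the mean ThT emission at 480 nm (450 nm excitation), read every 10 min over 72 h at 40° C with 700 rpm shaking between reads. Peptides at 267 μM, pH 4.0 acetate or pH 7.0 phosphate buffer (50 mM), 4 μM ThT final.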

Series [2] can be described thus: Fibril formation of crude library peptides (Thioflavin T). The series is classed as physicochemical. Further details: key: average ThT fluorescence emission at 480 nm (ex 450 nm), raw units. The following applies: Physical stability of peptides. The method, boiled down: as §1
The target of a further series is GLP1R (Homo sapiens, UniProt P43220). Nature of the series: hGLP1R potency, cAMP accumulation in CHO-K1 cells stably overexpressing hGLP1R. The arrangement: host or cells: CHO-K1. Conditions: for Selectivity: SCTR EC50/GLP1R EC50 ratio; for EC50: cAMP accumulation, CHO-K1 cells overexpressing hGLP1R, read-out: pEC50 hGLPR1 (converted). The format is cell-based. The method, boiled down: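 EC50 derives from variable-slope nonlinear regression of cAMP HTRF signal, with purified peptides tested as 11 three-fold dilutions in duplicate. Assay: hGLP1R-overexpressing CHO-K1 cells, 0.5 mM IBMX, 0.05% casein in DPBS, 30 min room-temperature stimulation, GLP-1(7-36) as reference agonist.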
Sequence of GLP1R (P43220 24-463): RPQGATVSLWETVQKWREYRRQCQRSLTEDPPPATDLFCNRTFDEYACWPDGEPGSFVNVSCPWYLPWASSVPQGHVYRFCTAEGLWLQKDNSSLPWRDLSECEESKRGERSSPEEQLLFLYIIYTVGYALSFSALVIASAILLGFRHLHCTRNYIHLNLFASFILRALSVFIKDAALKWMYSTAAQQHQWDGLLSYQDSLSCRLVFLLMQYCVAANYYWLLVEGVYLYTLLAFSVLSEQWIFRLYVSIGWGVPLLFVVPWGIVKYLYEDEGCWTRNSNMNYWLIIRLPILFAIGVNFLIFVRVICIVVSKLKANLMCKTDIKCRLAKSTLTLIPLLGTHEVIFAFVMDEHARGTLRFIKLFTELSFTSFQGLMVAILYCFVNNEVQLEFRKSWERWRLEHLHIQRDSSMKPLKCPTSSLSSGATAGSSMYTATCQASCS

Another series has as its target SCTR (Homo sapiens, UniProt P47872). Kind of series: hSCTR potency, cAMP accumulation in CHO-K1 cells stably overexpressing hSCTR. The format is cell-based. The arrangement: alternatively Euroscreen ES-712-AF; FAST-0161L; host or cells: CHO-K1. The following applies: cAMP accumulation, CHO-K1 cells overexpressing hSCTR; read-out: pEC50 hSCTR (converted). The procedure, abridged: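 EC50 derived from variable-slope nonlinear regression on 11-point, 3-fold series run in duplicate (crude peptides: 5 points, 10-fold, n=1). Compound stimulation lasted 30 min at room temperature in casein/IBMX-containing DPBS (0.05%, 0.5 mM), 2000 cells/well; cAMP detected by time-resolved FRET after one hour.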
(In general: cAMP levels reflect the balance of adenylyl cyclase and phosphodiesterase activity.)

Sequence of SCTR (P47872 23-440): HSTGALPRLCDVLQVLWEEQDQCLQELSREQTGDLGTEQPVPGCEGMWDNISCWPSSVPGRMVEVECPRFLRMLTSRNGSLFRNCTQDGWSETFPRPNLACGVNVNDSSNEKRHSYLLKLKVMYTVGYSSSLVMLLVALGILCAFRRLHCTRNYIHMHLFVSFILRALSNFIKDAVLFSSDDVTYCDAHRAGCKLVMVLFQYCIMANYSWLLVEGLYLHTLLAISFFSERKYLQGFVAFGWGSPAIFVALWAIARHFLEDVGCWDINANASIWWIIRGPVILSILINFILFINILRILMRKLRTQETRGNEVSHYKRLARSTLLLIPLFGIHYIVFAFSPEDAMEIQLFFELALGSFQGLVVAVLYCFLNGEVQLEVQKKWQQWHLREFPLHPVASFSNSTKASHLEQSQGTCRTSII

For the molecule `CC(C)C[C@H](NC(=O)[C@H](Cc1ccccc1)NC(=O)[C@H](CCCNC(=N)N)NC(=O)[C@H](CCC(N)=O)NC(=O)[C@H](CCC(N)=O)NC(=O)[C@H](C)NC(=O)[C@H](C)NC(=O)[C@@H](NC(=O)[C@H](CCC(=O)O)NC(=O)[C@H](CCCCNC(=O)COCCOCCNC(=O)COCCOCCNC(=O)CC[C@H](NC(=O)CCCCCCCCCCCCCCCCCCC(=O)O)C(=O)O)NC(=O)[C@H](CC(C)C)NC(=O)[C@H](CCCNC(=N)N)NC(=O)[C@H](CO)NC(=O)[C@@H](NC(=O)[C@H](CC(=O)O)NC(=O)[C@H](CO)NC(=O)[C@@H](NC(=O)[C@H](Cc1ccccc1)NC(=O)[C@@H](NC(=O)CNC(=O)[C@H](CCC(=O)O)NC(=O)C(C)(C)NC(=O)[C@@H](N)Cc1c[nH]cn1)[C@@H](C)O)[C@@H](C)O)C(C)C)[C@@H](C)O)C(=O)N[C@@H](CCC(=O)O)C(=O)N[C@@H](Cc1c[nH]cn1)C(=O)N[C@@H](CC(C)C)C(=O)N[C@H](C(N)=O)C(C)C` [compound 21] (H-H[Aib]EGTFTSDVSRLK([AEEA-AEEA-γGlu-C20 diacid])ETAAQQRFLEHLV-NH2), the “Turbidity (pH 7)” value in series [1] is recorded as 0.08. Further, the Fibril formation in series [2] came out at 193729. Further, at GLP1R, the Selectivity is on record as 17906 and the EC50 was 0.0126 nM. In addition, the EC50 on SCTR was 200 nM.

Regarding `CC(C)C[C@H](NC(=O)[C@H](Cc1ccccc1)NC(=O)[C@H](CCCNC(=N)N)NC(=O)[C@H](CCC(N)=O)NC(=O)[C@H](CCC(=O)O)NC(=O)[C@H](C)NC(=O)[C@H](C)NC(=O)[C@H](CCC(=O)O)NC(=O)[C@H](CCC(=O)O)NC(=O)[C@H](CCCCNC(=O)COCCOCCNC(=O)COCCOCCNC(=O)CC[C@H](NC(=O)CCCCCCCCCCCCCCCCCCC(=O)O)C(=O)O)NC(=O)[C@H](CC(C)C)NC(=O)[C@H](CCCNC(=N)N)NC(=O)[C@H](CO)NC(=O)[C@@H](NC(=O)[C@H](CC(=O)O)NC(=O)[C@H](CO)NC(=O)[C@@H](NC(=O)[C@H](Cc1ccccc1)NC(=O)[C@@H](NC(=O)CNC(=O)[C@H](CCC(=O)O)NC(=O)C(C)(C)NC(=O)[C@@H](N)Cc1c[nH]cn1)[C@@H](C)O)[C@@H](C)O)C(C)C)C(=O)N[C@@H](CCC(=O)O)C(=O)N[C@@H](Cc1c[nH]cn1)C(=O)N[C@@H](CC(C)C)C(=O)N[C@H](C(N)=O)C(C)C` [compound 22] (H-H[Aib]EGTFTSDVSRLK([AEEA-AEEA-γGlu-C20 diacid])EEAAEQRFLEHLV-NH2), the “Turbidity (pH 7)” value in series [1] is recorded as 0.08. Besides, the Fibril formation in series [2] is listed as 16453. At GLP1R, the Selectivity came out at 20678 and the EC50 was 0.02 nM. Besides, the EC50 at SCTR was 398 nM.

Take `CC(C)C[C@H](NC(=O)[C@H](Cc1ccccc1)NC(=O)[C@H](CCCNC(=N)N)NC(=O)[C@H](CCC(N)=O)NC(=O)[C@H](C)NC(=O)[C@H](C)NC(=O)[C@H](C)NC(=O)[C@@H](NC(=O)[C@H](CCC(=O)O)NC(=O)[C@H](CCCCNC(=O)COCCOCCNC(=O)COCCOCCNC(=O)CC[C@H](NC(=O)CCCCCCCCCCCCCCCCCCC(=O)O)C(=O)O)NC(=O)[C@H](CC(C)C)NC(=O)[C@H](CCCNC(=N)N)NC(=O)[C@H](CO)NC(=O)[C@@H](NC(=O)[C@H](CC(=O)O)NC(=O)[C@H](CO)NC(=O)[C@@H](NC(=O)[C@H](Cc1ccccc1)NC(=O)[C@@H](NC(=O)CNC(=O)[C@H](CCC(=O)O)NC(=O)C(C)(C)NC(=O)[C@@H](N)Cc1c[nH]cn1)[C@@H](C)O)[C@@H](C)O)C(C)C)[C@@H](C)O)C(=O)N[C@@H](CCC(=O)O)C(=O)N[C@@H](Cc1c[nH]cn1)C(=O)N[C@@H](CC(C)C)C(=O)N[C@H](C(N)=O)C(C)C` [compound 23] (H-H[Aib]EGTFTSDVSRLK([AEEA-AEEA-γGlu-C20 diacid])ETAAAQRFLEHLV-NH2): in series [1], the “Turbidity (pH 7)” value was determined as 0.08. In addition, the Fibril formation in series [2] worked out at 7462. Moreover, the Selectivity on GLP1R was determined as 8143. For the same molecule, the EC50 on GLP1R was 0.02 nM; at SCTR, 158 nM.

Consider `CC(C)C[C@H](NC(=O)[C@H](Cc1ccccc1)NC(=O)[C@H](CCCNC(=N)N)NC(=O)[C@H](CCC(N)=O)NC(=O)[C@H](CCC(N)=O)NC(=O)[C@H](C)NC(=O)[C@H](C)NC(=O)[C@H](Cc1ccccc1)NC(=O)[C@H](CCC(=O)O)NC(=O)[C@H](CCCCNC(=O)COCCOCCNC(=O)COCCOCCNC(=O)CC[C@H](NC(=O)CCCCCCCCCCCCCCCCCCC(=O)O)C(=O)O)NC(=O)[C@H](CC(C)C)NC(=O)[C@H](CCCNC(=N)N)NC(=O)[C@H](CO)NC(=O)[C@@H](NC(=O)[C@H](CC(=O)O)NC(=O)[C@H](CO)NC(=O)[C@@H](NC(=O)[C@H](Cc1ccccc1)NC(=O)[C@@H](NC(=O)CNC(=O)[C@H](CCC(=O)O)NC(=O)C(C)(C)NC(=O)[C@@H](N)Cc1c[nH]cn1)[C@@H](C)O)[C@@H](C)O)C(C)C)C(=O)N[C@@H](CCC(=O)O)C(=O)N[C@@H](Cc1c[nH]cn1)C(=O)N[C@@H](CC(C)C)C(=O)N[C@H](C(N)=O)C(C)C` [compound 24] (H-H[Aib]EGTFTSDVSRLK([AEEA-AEEA-γGlu-C20 diacid])EFAAQQRFLEHLV-NH2), for which the “Turbidity (pH 7)” value in series [1] is 0.08. The Fibril formation in series [2] was determined as 221619. Also, the Selectivity on GLP1R worked out at 2998. The EC50 on GLP1R is 0.0501 nM; on SCTR, 158 nM.

On to `CC(C)C[C@H](NC(=O)[C@H](Cc1ccccc1)NC(=O)[C@H](CCCNC(=N)N)NC(=O)[C@H](CCC(N)=O)NC(=O)C(C)(C)NC(=O)[C@H](C)NC(=O)[C@H](C)NC(=O)[C@@H](NC(=O)[C@H](CCC(=O)O)NC(=O)[C@H](CCCCNC(=O)COCCOCCNC(=O)COCCOCCNC(=O)CC[C@H](NC(=O)CCCCCCCCCCCCCCCCCCC(=O)O)C(=O)O)NC(=O)[C@H](CC(C)C)NC(=O)[C@H](Cc1ccccc1)NC(=O)[C@H](CO)NC(=O)[C@@H](NC(=O)[C@H](CC(=O)O)NC(=O)[C@H](CO)NC(=O)[C@@H](NC(=O)[C@H](Cc1ccccc1)NC(=O)[C@@H](NC(=O)CNC(=O)[C@H](CCC(=O)O)NC(=O)C(C)(C)NC(=O)[C@@H](N)Cc1c[nH]cn1)[C@@H](C)O)[C@@H](C)O)C(C)C)[C@@H](C)O)C(=O)N[C@@H](CCC(=O)O)C(=O)N[C@@H](Cc1c[nH]cn1)C(=O)N[C@@H](CC(C)C)C(=O)N[C@H](C(N)=O)C(C)C` [compound 25] (H-H[Aib]EGTFTSDVSFLK([AEEA-AEEA-γGlu-C20 diacid])ETAA[Aib]QRFLEHLV-NH2), for which the “Turbidity (pH 7)” value in series [1] came to 0.08. The molecule further registered a Fibril formation in series [2] of 8584. At GLP1R, the Selectivity worked out at 8268 and the EC50 is 1 nM. Moreover, the EC50 at SCTR was 7940 nM.
